Literature values as cited in patent publication US20240415910A1, “Toxicity-Removed and Medicinal Effect-Retained Fuzi Decoction Granule and Preparation Method Thereof” (Zhejiang Chinese Medical University, priority 2023, published 2024).

Columns and labels:
[1] = oral administration
[2] = water and ethanol

## CCN1C[C@]2(COC)[C@H](O)C[C@H](OC)[C@@]34[C@@H]5C[C@@]6(O)[C@H](OC(=O)c7ccccc7)[C@@H]5[C@@](OC(C)=O)([C@@H]([C@H](OC)[C@H]23)[C@@H]14)[C@@H](O)[C@@H]6OC [Aconitine]
[1]
  oral amount that can cause poisoning reactions: 0.2 mg
[2]
  solubility: soluble in both water and ethanol
